Assay results published in ChEMBL document CHEMBL3885881, “DrugMatrix”.

Organism: Rattus norvegicus
Test: DrugMatrix - Regimen: Daily Repeat
Type: toxicity, organism-based, Sprague-Dawley
Parameters: regimen Daily Repeat, gender Male, age 6-8 weeks
Conditions: in vivo, sc, route subcutaneous, […]; for SODIUM / TOTAL BILIRUBIN / TOTAL PROTEIN / URIC ACID / ALANINE AMINOTRANSFERASE / ALBUMIN / ALKALINE PHOSPHATASE / ASPARTATE AMINOTRANSFERASE / BLOOD UREA NITROGEN / CARBON DIOXIDE / CHLORIDE / CHOLESTEROL / CREATINE PHOSPHOKINASE / CREATININE / GLUCOSE / LACTATE DEHYDROGENASE / LIPASE / PHOSPHORUS / POTASSIUM: tissue Plasma; for ABSOLUTE BASOPHIL / ABSOLUTE EOSINOPHIL / ABSOLUTE LYMPHOCYTE / ABSOLUTE MONOCYTE / ABSOLUTE SEGMENTED NEUTROPHIL / BASOPHIL / EOSINOPHIL / ERYTHROCYTE COUNT / HEMATOCRIT / HEMOGLOBIN / LEUKOCYTE COUNT / LYMPHOCYTE / MEAN CORPUSCULAR HEMOGLOBIN / MEAN CORPUSCULAR HEMOGLOBIN CONCENTRATION / MEAN CORPUSCULAR VOLUME / MONOCYTE / NEUTROPHIL / NUCLEATED RED BLOOD CELLS / PLATELET COUNT: tissue Blood
[1] = 2 mg/kg, 120 h, dose level M2, time 5 day
[2] = 25 mg/kg, 72 h, dose level High, time 3 day
[3] = 25 mg/kg, 120 h, dose level High, time 5 day

## C[C@]12CC[C@@H]3c4ccc(OC(=O)c5ccccc5)cc4CC[C@H]3[C@@H]1CC[C@@H]2O [ESTRADIOL BENZOATE]
[1]
  SODIUM: 141.87 MEQ/L
  TOTAL BILIRUBIN: 0.13 mg/dL
  TOTAL PROTEIN: 5.93 G/DL
  URIC ACID: 2.07 mg/dL
[2]
  ABSOLUTE BASOPHIL: 0 CELLS/uL
  ABSOLUTE EOSINOPHIL: 0 CELLS/uL
  ABSOLUTE LYMPHOCYTE: 7876 CELLS/uL
  ABSOLUTE MONOCYTE: 263 CELLS/uL
  ABSOLUTE SEGMENTED NEUTROPHIL: 1061 CELLS/uL
  BASOPHIL: 0%
  EOSINOPHIL: 0%
  ERYTHROCYTE COUNT: 5.97 x10E6/uL
  HEMATOCRIT: 37%
  HEMOGLOBIN: 13.8 G/DL
  LEUKOCYTE COUNT: 9.2 x10E3/uL
  LYMPHOCYTE: 86%
  MEAN CORPUSCULAR HEMOGLOBIN: 23.2 pg
  MEAN CORPUSCULAR HEMOGLOBIN CONCENTRATION: 37.33 G/DL
  MEAN CORPUSCULAR VOLUME: 62.1 fL
  MONOCYTE: 2.67%
  NEUTROPHIL: 11.33%
  NUCLEATED RED BLOOD CELLS: 0 /100WBC
  PLATELET COUNT: 1341 x10E3/uL
  ALANINE AMINOTRANSFERASE: 32.33 u/L
  ALBUMIN: 4.13 G/DL
  ALKALINE PHOSPHATASE: 479.33 u/L
  ASPARTATE AMINOTRANSFERASE: 66.67 u/L
  BLOOD UREA NITROGEN: 10.33 mg/dL
  CARBON DIOXIDE: 29 mmol/L
  CHLORIDE: 101.33 MEQ/L
  CHOLESTEROL: 26.67 mg/dL
  CREATINE PHOSPHOKINASE: 407.67 u/L
  CREATININE: 0.16 mg/dL
  GLUCOSE: 188.67 mg/dL
  LACTATE DEHYDROGENASE: 154.67 u/L
  LIPASE: 7.33 u/L
  PHOSPHORUS: 11.1 mg/dL
  POTASSIUM: 5.86 MEQ/L
  SODIUM: 141.4 MEQ/L
  TOTAL BILIRUBIN: 0.1 mg/dL
  TOTAL PROTEIN: 5.73 G/DL
  URIC ACID: 2 mg/dL
[3]
  ABSOLUTE BASOPHIL: 0 CELLS/uL
  ABSOLUTE EOSINOPHIL: 23.33 CELLS/uL
  ABSOLUTE LYMPHOCYTE: 7006.67 CELLS/uL
  ABSOLUTE MONOCYTE: 182 CELLS/uL
  ABSOLUTE SEGMENTED NEUTROPHIL: 921.33 CELLS/uL
  BASOPHIL: 0%
  EOSINOPHIL: 0.33%
  ERYTHROCYTE COUNT: 5.89 x10E6/uL
  HEMATOCRIT: 35%
  HEMOGLOBIN: 13.6 G/DL
  LEUKOCYTE COUNT: 8.13 x10E3/uL
  LYMPHOCYTE: 86.33%
  MEAN CORPUSCULAR HEMOGLOBIN: 23.13 pg
  MEAN CORPUSCULAR HEMOGLOBIN CONCENTRATION: 38.9 G/DL
  MEAN CORPUSCULAR VOLUME: 59.43 fL
  MONOCYTE: 2.67%
  NEUTROPHIL: 10.67%
  NUCLEATED RED BLOOD CELLS: 0 /100WBC
  PLATELET COUNT: 988.67 x10E3/uL
  ALANINE AMINOTRANSFERASE: 53 u/L
  ALBUMIN: 5.07 G/DL
  ALKALINE PHOSPHATASE: 360 u/L
  ASPARTATE AMINOTRANSFERASE: 106.33 u/L
  BLOOD UREA NITROGEN: 14 mg/dL
  CARBON DIOXIDE: 27.33 mmol/L
  CHLORIDE: 98.67 MEQ/L
  CHOLESTEROL: 32.67 mg/dL
  CREATINE PHOSPHOKINASE: 366.33 u/L
  CREATININE: 0.19 mg/dL
  GLUCOSE: 130.67 mg/dL
  LACTATE DEHYDROGENASE: 223.33 u/L
  LIPASE: 7.67 u/L
  PHOSPHORUS: 11.37 mg/dL
  POTASSIUM: 5.61 MEQ/L
